Measurements from patent publication US6207701A, “Urokinase inhibitors” (Abbott Laboratories, priority 2000, dated 2001).
Where a name gives a salt, the structure may show the parent alone.

Assays:
[1] = biological target: T1, urokinase enzyme Abbokinase (Homo sapiens, UniProt P00749); assay: Determination of Urokinase Inhibition (chromogenic substrate S-2444); type: biochemical; settings: substrate S-2444 at 200 μM, pH 7.4, enzyme 2-3 nM, 405 nm, 15 minutes; read-out: Inhibitory Potency Against Urokinase, IC50
T1 construct: purchased Abbott Laboratories, Abbott Park, Ill
Method: Distributor of Chromogenix) at 200 μM. […] Four concentrations were chosen, then 5 μl of each were diluted to a total assay volume of 200 μl. […] Several vials were reconstituted as directed on the vial, aliquoted and stored frozen. The enzyme was further diluted in assay buffer and 10 μl was used in the assay. Enzyme concentration in the assay was 2-3 nM. […] The Spectromax® calculated the reaction rates which were used to calculate percent inhibition of the compounds of this invention versus the reaction rate of the enzyme in the absence of any inhibitor. The Ki 's of the inhibitors were calculated from the percent inhibition and previously established Km.

[2] = tested on: angiogenesis/capillary network formation; settings: in vitro; Alliegro and Glaser, J. Cell Biol. 115: 402a (1991); cited from earlier work

IC50 [1] | Structure (SMILES) | inhibit angiogenesis/capillary network formation [2]
3220 nM | N=C(N)c1cc2ccc(C(=O)Nc3ccccc3)cc2s1 [Example 3, 2-[amino(imino)methyl]-N-phenyl-1-benzothiophene-6-carboxamide] | 
192 nM | N=C(N)c1cc2c(Nc3nccs3)cccc2s1 [Example 2, 4-(1,3-thiazol-2-ylamino)-1-benzothiophene-2-carboximidamide trifluoroacetic acid salt] | 
 | N=C(N)NC(=O)c1nc(Cl)c(N)nc1N [Amiloride] | angiogenesis/capillary network formation in vitro
680 nM | CC(C)Oc1cccc(NC(=O)c2ccc3cc(C(=N)N)sc3c2)c1 [Example 4, 2-[amino(imino)methyl]-N-(3-isopropoxyphenyl)-1-benzothiophene-6-carboxamide] | 
